Reference: patent publication US4725683A, “Fluorophenoxyphenoxypropionates and derivatives thereof” (The Dow Chemical Company, priority 1985, dated 1988)

Legend:
Experiment in all cases: Preemergent activity
Format in all cases: in vivo
[1] = tested on: Wild Oats; conditions: Avena fatua, pre-emergence, read-out: Preemergence Control; for pest or weed control at 140 g/ha: 0.14 kgs/hectare; for pest or weed control at 280 g/ha: 0.28 kgs/hectare; for pest or weed control at 560 g/ha: 0.56 kgs/hectare; for pest or weed control at 1120 g/ha: 1.12 kgs/hectare; for pest or weed control at 70 g/ha: 0.07 kgs/hectare
Protocol: (§1) In a representative operation, 2-[4-(2-fluoro-4-trifluoromethylphenoxy)phenoxy]propionic acid methyl ester, to be utilized in a series of tests, is dissolved in acetone to one half of the final volume (twice the final concentration) to be used and the acetone solution in each case is admixed with an equal volume of water containing 0.1 percent by weight of Tween-20 surface active material (Tween-20 is a trademark of Atlas Chemical Company). The composition, generally in the nature of an emulsion, was employed to treat separate respective seed beds of sandy loam soil of good nutrient content wherein each seed bed contained separate groups of good viable seeds, each group being of one of a known plant species. The various beds were positioned side by side and exposed to substantially identical conditions of temperature and light. Each bed was maintained so as to prevent any interaction with the test compound in different seed beds. Each seed bed was treated with the composition as a spray employing conventional spraying equipment to deposit a predetermined amount of the compound uniformly throughout the surface of the bed. Another seed bed was treated only with the acetone-Tween-20 water mixture with no chemical added to serve as a control.

[2] = tested on: Wheat; conditions: Triticum aestivum, pre-emergence, read-out: Preemergence Control; for plant injury at 70 g/ha: 0.07 kgs/hectare; for plant injury at 140 g/ha: 0.14 kgs/hectare; for plant injury at 280 g/ha: 0.28 kgs/hectare; for plant injury at 560 g/ha: 0.56 kgs/hectare; for plant injury at 1120 g/ha: 1.12 kgs/hectare
Protocol: as §1

[3] = tested on: Barnyard Grass; conditions: Echinochloa crus-galli, pre-emergence, read-out: Preemergence Control; for pest or weed control at 140 g/ha: 0.14 kgs/hectare; for pest or weed control at 280 g/ha: 0.28 kgs/hectare; for pest or weed control at 560 g/ha: 0.56 kgs/hectare; for pest or weed control at 1120 g/ha: 1.12 kgs/hectare; for pest or weed control at 70 g/ha: 0.07 kgs/hectare
Protocol: as §1

[4] = tested on: Yellow Foxtail; conditions: Setaria, pre-emergence, read-out: Preemergence Control; for pest or weed control at 140 g/ha: 0.14 kgs/hectare; for pest or weed control at 280 g/ha: 0.28 kgs/hectare; for pest or weed control at 560 g/ha: 0.56 kgs/hectare; for pest or weed control at 1120 g/ha: 1.12 kgs/hectare; for pest or weed control at 70 g/ha: 0.07 kgs/hectare
Protocol: as §1

[5] = tested on: Johnson Grass; conditions: Sorghum halepense, pre-emergence, read-out: Preemergence Control; for pest or weed control at 140 g/ha: 0.14 kgs/hectare; for pest or weed control at 280 g/ha: 0.28 kgs/hectare; for pest or weed control at 560 g/ha: 0.56 kgs/hectare; for pest or weed control at 1120 g/ha: 1.12 kgs/hectare; for pest or weed control at 70 g/ha: 0.07 kgs/hectare
Protocol: as §1

SMILES	pest or weed control at 140 g/ha [1]	pest or weed control at 280 g/ha [1]	pest or weed control at 560 g/ha [1]	pest or weed control at 1120 g/ha [1]	plant injury at 70 g/ha [2]	plant injury at 140 g/ha [2]	plant injury at 280 g/ha [2]	plant injury at 560 g/ha [2]	plant injury at 1120 g/ha [2]	pest or weed control at 140 g/ha [3]	pest or weed control at 280 g/ha [3]	pest or weed control at 560 g/ha [3]	pest or weed control at 1120 g/ha [3]	pest or weed control at 140 g/ha [4]	pest or weed control at 280 g/ha [4]	pest or weed control at 560 g/ha [4]	pest or weed control at 1120 g/ha [4]	pest or weed control at 140 g/ha [5]	pest or weed control at 280 g/ha [5]	pest or weed control at 1120 g/ha [5]	also measured
CC(Oc1ccc(Oc2ccc(Br)cc2F)cc1)C(=O)OC1CCCC1 (stereo not drawn)	0%	30%	100%	100%	0%	0%	0%	0%	80%	50%	100%	100%	100%	0%	100%	100%	100%	0%	40%	100%	pest or weed control at 560 g/ha [5]: 100%
CC(Oc1ccc(Oc2ccc(Br)cc2F)cc1)C(N)=O (stereo not drawn) [NH2, 2-(4-(4-Bromo-2-fluorophenoxy)phenoxy)propionamide]	0%	50%	50%	95%	0%	0%	30%	90%	40%	100%	100%	100%	100%	90%	95%	100%	100%	0%	30%	100%	pest or weed control at 70 g/ha [1]: 0%; pest or weed control at 70 g/ha [3]: 20%; pest or weed control at 70 g/ha [4]: 0%; pest or weed control at 70 g/ha [5]: 0%; pest or weed control at 560 g/ha [5]: 90%
C#CCOC(=O)C(C)Oc1ccc(Oc2ccc(Br)cc2F)cc1 (stereo not drawn) [OCH2CCH]	–	50%	50%	70%	0%	0%	0%	0%	0%	20%	100%	100%	100%	60%	95%	100%	100%	20%	50%	100%	pest or weed control at 70 g/ha [1]: 0%; pest or weed control at 70 g/ha [3]: 0%; pest or weed control at 70 g/ha [4]: 0%; pest or weed control at 70 g/ha [5]: 0%; pest or weed control at 560 g/ha [5]: 100%
CCOCCOC(=O)C(C)Oc1ccc(Oc2ccc(Br)cc2F)cc1 (stereo not drawn) [O(CH2)2 OC2 H5]	30%	30%	100%	100%	0%	0%	0%	0%	20%	90%	95%	100%	100%	0%	80%	100%	100%	0%	0%	60%	pest or weed control at 70 g/ha [1]: 0%; pest or weed control at 70 g/ha [3]: 0%; pest or weed control at 70 g/ha [4]: 0%; pest or weed control at 70 g/ha [5]: 0%; pest or weed control at 560 g/ha [5]: 60%
CC(Oc1ccc(Oc2ccc(Br)cc2F)cc1)C(=O)Nc1ccc(C(F)(F)F)cc1 (stereo not drawn)	0%	–	–	60%	0%	0%	0%	0%	0%	0%	–	–	50%	0%	–	–	0%	0%	–	20%	–
